The source of these data is PMC9233935 (Journal of medicinal chemistry, 2022).

≈ marks a conversion by molar mass, not a printed value. Some results are limits rather than exact numbers.

Assay [1] concerns S. aureus ATTC 25923.
Assay [2] has as its system gyrA hypomorph (gyrA-FDAS-TetON-1). The class given is cell-based. The conditions noted are these: fold-hypersensitivity.
A further assay has as its target Mtb gyrase (Mycobacterium tuberculosis, UniProt P9WG45+P9WG47). Kind of assay: biochemical. The class given is biochemical.
Assay [3] concerns S. aureus ATTC 25923. Kind of assay: microbe, parasite or virus in culture. The conditions noted are these: Staphylococcus aureus, ATTC25923, read-out: Sau MIC.
For another assay, the system named is M. tuberculosis H37Rv. Kind of assay: microbe, parasite or virus in culture. The format is cell-based, Mycobacterium tuberculosis.

Mtb gyrase, sequence (P9WG45 whole entry, looked up): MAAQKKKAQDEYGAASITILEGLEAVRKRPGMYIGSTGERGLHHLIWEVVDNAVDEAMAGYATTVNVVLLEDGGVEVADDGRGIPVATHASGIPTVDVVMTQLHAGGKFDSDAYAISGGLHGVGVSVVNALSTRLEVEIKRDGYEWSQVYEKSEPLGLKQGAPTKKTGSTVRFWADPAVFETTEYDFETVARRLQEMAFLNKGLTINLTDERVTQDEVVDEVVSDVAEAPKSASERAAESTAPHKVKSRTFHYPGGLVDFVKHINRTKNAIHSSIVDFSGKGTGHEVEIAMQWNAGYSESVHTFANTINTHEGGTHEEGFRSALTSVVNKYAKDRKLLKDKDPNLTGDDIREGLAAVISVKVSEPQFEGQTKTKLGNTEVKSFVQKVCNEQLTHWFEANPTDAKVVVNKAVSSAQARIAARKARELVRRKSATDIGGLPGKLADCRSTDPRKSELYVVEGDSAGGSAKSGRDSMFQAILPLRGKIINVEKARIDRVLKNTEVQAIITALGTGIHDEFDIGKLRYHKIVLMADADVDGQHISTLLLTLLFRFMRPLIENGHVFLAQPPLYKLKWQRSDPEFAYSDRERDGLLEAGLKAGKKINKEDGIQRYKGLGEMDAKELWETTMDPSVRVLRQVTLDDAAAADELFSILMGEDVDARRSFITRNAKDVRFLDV
Mtb gyrase, sequence (P9WG47 whole entry, looked up): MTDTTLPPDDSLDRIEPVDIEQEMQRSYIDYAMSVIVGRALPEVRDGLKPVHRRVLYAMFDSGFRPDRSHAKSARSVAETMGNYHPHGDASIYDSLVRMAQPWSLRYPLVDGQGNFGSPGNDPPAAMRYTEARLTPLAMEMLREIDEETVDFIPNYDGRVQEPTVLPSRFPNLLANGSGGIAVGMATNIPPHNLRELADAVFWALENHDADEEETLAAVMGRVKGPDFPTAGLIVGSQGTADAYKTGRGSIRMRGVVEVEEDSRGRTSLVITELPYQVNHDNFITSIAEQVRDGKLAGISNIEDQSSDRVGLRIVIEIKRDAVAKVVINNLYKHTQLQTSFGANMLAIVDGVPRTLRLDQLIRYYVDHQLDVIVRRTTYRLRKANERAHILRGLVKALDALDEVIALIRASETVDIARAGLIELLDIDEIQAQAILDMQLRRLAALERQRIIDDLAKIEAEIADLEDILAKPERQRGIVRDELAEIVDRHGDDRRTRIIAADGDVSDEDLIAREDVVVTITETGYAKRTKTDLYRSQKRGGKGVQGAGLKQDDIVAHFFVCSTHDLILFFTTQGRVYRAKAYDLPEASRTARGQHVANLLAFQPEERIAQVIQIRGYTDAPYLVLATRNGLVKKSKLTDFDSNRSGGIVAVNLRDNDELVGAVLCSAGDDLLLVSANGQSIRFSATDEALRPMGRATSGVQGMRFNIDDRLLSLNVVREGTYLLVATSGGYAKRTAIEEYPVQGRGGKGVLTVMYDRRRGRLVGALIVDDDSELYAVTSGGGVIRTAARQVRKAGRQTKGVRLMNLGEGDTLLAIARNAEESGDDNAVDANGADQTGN

With `C[C@@H]1CN2c3c(cc4c(N5CC[C@H](O)C5)noc4c3F)CC3(C(=O)NC(=O)NC3=O)[C@H]2[C@H](C)O1` [Compound 8, (2R,4S,4aS)-11-fluoro-8-((S)-3-hydroxypyrrolidin-1-yl)-2,4-dimethyl-1,2,4,4a-tetrahydro-2’H,6H-spiro[isoxazolo[4,5-g][1,4]oxazino[4,3-a]quinoline-5,5’-pyrimidine]-2’,4’,6’(1’H,3’H)-trione], the “fold less active against S. aureus than zoliflodacin” value in the assay with S. aureus ATTC 25923 [1] is recorded as above 200 fold. For the same molecule, in assay [2], the “Ratio (WT/hypomorph) MIC” value was 2.5 and the “Ratio (WT/hypomorph) MIC50” value came to 3.6. Further, the “Mtb gyrase IC50 fold higher (less potent) than moxifloxacin” value at Mtb gyrase was at most 2 fold.

Regarding `C[C@@H]1CN2c3c(cc4c(N5C[C@@H](O)[C@H](O)C5)noc4c3F)CC3(C(=O)NC(=O)NC3=O)[C@H]2[C@H](C)O1` [Compound 10, (2R,4S,4aS)-8-((3R,4R)-3,4-dihydroxypyrrolidin-1-yl)-11-fluoro-2,4-dimethyl-1,2,4,4a-tetrahydro-2’H,6H-spiro[isoxazolo[4,5-g][1,4]oxazino[4,3-a]quinoline-5,5’-pyrimidine]-2’,4’,6’(1’H,3’H)-trione], in assay [2], the “Ratio (WT/hypomorph) MIC” value was found to be 2.1 and the “Ratio (WT/hypomorph) MIC50” value turned out to be 2.9. In addition, the “Mtb gyrase IC50 fold higher (less potent) than moxifloxacin” value on Mtb gyrase is on record as at most 2 fold.

Regarding `C[C@@H]1CN2c3c(cc4c(OC[C@@H]5COC(=O)N5)noc4c3F)CC3(C(=O)NC(=O)NC3=O)[C@H]2[C@H](C)O1` [Compound 28, (2R,4S,4aS)-11-fluoro-2,4-dimethyl-8-(((R)-2-oxooxazolidin-4-yl)methoxy)-1,2,4,4a-tetrahydro-2’H,6H-spiro[isoxazolo[4,5-g][1,4]oxazino[4,3-a]quinoline-5,5’-pyrimidine]-2’,4’,6’(1’H,3’H)-trione], the MIC in the assay with S. aureus ATTC 25923 [3] came out at 63 µM (≈ 31.7 µg/mL).

As to `C[C@@H]1CN2c3c(cc4c(N5CC[C@H](O)C5)noc4c3F)CC3(C(=O)NC(=O)NC3=O)[C@H]2[C@H](C)N1C#N` [Compound 40, (2R,4S,4aS)-11-fluoro-8-((S)-3-hydroxypyrrolidin-1-yl)-2,4-dimethyl-2’,4’,6’-trioxo-1,1’,2,3’,4,4a,4’,6’-octahydro-2’H,3H,6H-spiro[isoxazolo[4,5-g]pyrazino[1,2-a]quinoline-5,5’-pyrimidine]-3-carbonitrile], in the assay on S. aureus ATTC 25923 [3], the MIC is above 125 µM. In assay [2], the “Ratio (WT/hypomorph) MIC” value is on record as 2.0 and the “Ratio (WT/hypomorph) MIC50” value turned out to be 3.1. Inhibition at Mtb gyrase was half-maximal at 19 µM (IC50).

Regarding “(2R,4S,4aS)-11-fluoro-2,4-dimethyl-8-((S)-3-(methylamino)pyrrolidin-1-yl)-1,2,4,4a-tetrahydro-2’H-spiro[isoxazolo[5’,4’:4,5]benzo[1,2-b][1,4]oxazino[4,3-d][1,4]oxazine-5,5’-pyrimidine]-2’,4’,6’(1’H,3’H)-trione [Compound 17]”, the “Sau MIC” value in the assay with S. aureus ATTC 25923 [1] came out at 125 µM. In the assay with M. tuberculosis H37Rv, the “Mtb MIC” value is 63 µM and the “fold higher Mtb MIC compared to 8” value is listed as 9 to16 fold.
